How the values were obtained:
[1] = tested on: Cd11b+ microglial cells; experiment: Gene expression of microglial immuno-phenotype markers (RT-qPCR) in Cd11b+ microglial cells sorted from brain at 21 days; assay type: in vivo, mouse
Protocol: We used peritonitis induced by CLP as a model of sepsis (Rittirsch et al., 2009). Briefly, animals were anesthetized with ketamine (Imalgene® 1000 100 mg/kg, Merial, France) and Xylazine (Rompun® 2% 20 mg/kg, Bayer, Germany) prior to surgery. After laparotomy, caecum was ligatured at the distal third with a 4.0 suture and the distal part was perforated twice with a 21 Gauge needle.
(§1) MnTBAP is commercially available: it is for example manufactured by Sigma-Aldrich, Calbiochem, etc. For use it is dissolved following the guidance provided by the manufacturer.
Brains were collected for cell dissociation and Cdllb-positive cell separation using a magnetic coupled antibody (MACS® Technology), according to the manufacturer's protocol (Miltenyi Biotec, Bergisch Gladbach, Germany) and as previously described (Schang et al., 2014). In brief, mice were intracardially perfused with NaCl 0,9%. The brains are then dissociated using the Neural Tissue Dissociation Kit containing trypsin and the gentleMACS Octo Dissociator with Heaters. From the resulting brain homogenate, cd11 b-positive cells were enriched using the anti-cd11 b MicroBeads. After elution the isolated cells were centrifuged for 5 min at 200G and conserved at −80° C.
(§2) Total RNA was isolated from cells using the RNAeasy Micro kit (Qiagen), and reverse-transcribed using Superscript® III Reverse transcriptase (Invitrogen). Real-time quantitative PCR was performed in duplicate for each sample using Power Sybr Green PCR Master Mix (Applied Biosystems) and the rate of dye incorporation was monitored using the StepOne™ Plus RealTime PCR system (Applied Biosystems). Data were analyzed by StepOne Plus RT PCR software v2.1 and Microsoft excel. Amplification specificity was assessed with a melting curve analysis. TBP transcript levels were used for normalisation of each target (=ΔCT). Real-time PCR CT values were analyzed using the 2^−(ΔCt) method to calculate the fold expression (Schmittgen et al., 2008). The data are presented as relative mRNA units with respect to control group (expressed as fold over control value). Primer sequences available upon request.
We have adopted nomenclature consistent with previous work in microglia (Chhor et al., 2013). We distinguished 3 types of phenotypes according to the mRNA expression levels of markers listed in brackets: pro-inflammatory phentoype (Ptgs2, Cd32, Cd86), alternative phenotype (Lgals3, Igf1 and CD206) and immunoregulatory phenotype (II1rn, II4ra, Socs3).
Quantification of pro-inflammatory markers (CD32, CD86 and Ptgs2 mRNA), anti-inflammatory markers (Lgals3, IGF1 and CD206 mRNA) and immuno-regulator markers (IL1-RA, IL4-Rα and SOCS3 mRNA) by RT-qPCR in Cd11b+ microglial cells magnetically sorted from the brain at 21 days. Control mice were non-operated but anesthetized. The data shown represent median values of n=5 mice per group. Two-way analyses of variance (ANOVAs) CLP vs Control×MnTBAP vs Placebo were performed. […] Data are represented as fold changes using the 2-ΔΔCT method.

[2] = tested on: brain; experiment: Brain ROS/RNS, antioxidant defense and bioenergetic/mitochondrial parameters at 21 days; assay type: in vivo, mouse
Text: (b) Levels of the central bioenergetic metabolite Acetyl-CoA expressed in nmol/g. Expression of genes coding for PGC-lalpha quantified by RT-qPCR from RNA isolated from brains extracted from control and CLP mice with or without MnTBAP.
Data shown are mean values (±SD). Gray bars represent MnTBAP-treated mice from either CLP or control groups, and black bars represent placebo-treated mice from either CLP or Control groups. Two-way analyses of variance (ANOVAs) (CLP vs Control×MnTBAP vs Placebo) were performed. When a significant interaction was observed, planned comparisons were performed for the CLPI/Placebo group against the three other groups. The significance of the planned comparisons is indicated with asterisks (*p<0.05, **p<0.01, ***p<0.001, ****p<0.0001) .
as §1, §2
Microglial cells and brain samples were resuspended in lysis buffer (50 mM TrisHCI pH 7.5, 150 mM NaCl, 1% Triton X-100, 0.1% SDS, 1 mM EDTA, and protease inhibitor mixture), mechanically homogenized with a piston, briefly vortexed and incubated for 30 min at 4° C. Lysed samples were briefly centrifuged to remove debris, and the whole supernatant extract was collected. Aliquots of the supernatant were immediately used for the assessment of ROS level, RNS level, dual ROS/RNS level, SOD activity, and Acetyl-Coa level. The protein content was determined with the Bradford reagent (Sigma-Aldrich).
Both ROS and RNS were measured by incubating CellROX (Life Technologies) with 30 μg of freshly extracted total proteins for 45 min at 37° C. in the dark in 96-wells plate in triplicate. Fluorescence intensity was measured using near-infra-red fluorescence setting with the plate reader Odyssey Infrared Imaging system scanner and Odyssey application software v3.0 (LI-COR Biosciences, Lincoln, NE).
SOD activity was measured with Superoxide Dismutase Activity Colorimetric Assay kit (Abcam, ab65354), following the manufacturer's instructions. This measurement assesses SOD-dependent inhibition of superoxide anion reduction. Tests were performed with 30 μg of freshly extracted total proteins, quantified by Bradford assay, or with 10 μl of serum, in triplicate.
Total DNA was prepared using extraction buffer (0.2 mg ml^−1 proteinase K, 0.2% SDS and 5 mM EDTA in PBS) and incubated at 50° C. for 3 h. DNA was precipitated with 3 M sodium acetate (pH 5.2) and isopropanol for 20 min on ice before centrifugation at 8,000 g at 4° C. The DNA pellet was washed and briefly air-dried. qPCR amplification was performed on total DNA using the StepOne Plus RealTime PCR system (Applied Biosystems) and Power Sybr Green PCR Master mix (ABI) following the manufacturer's instruction. A fragment of mitochondrial COI gene, the established marker for mtDNA content in mouse cells, was amplified using the nuclear encoded Ndufv1 gene as endogenous reference. […]

[3] = CLP mice + MnTBAP, 21 days after sepsis
[4] = CLP mice + MnTBAP, 21 days after sepsis, remained different from Control-Placebo
[5] = MnTBAP in control mice vs Control-placebo mice
[6] = MnTBAP in control mice vs Control-placebo mice, p<0.0001

## O=C(O)c1ccc(/C2=C3\C=CC(=N3)/C(c3ccc(C(=O)O)cc3)=c3/cc/c4[n]3[Mn]([Cl])[n]3c2ccc3/C(c2ccc(C(=O)O)cc2)=C2/C=CC(=N2)\C=4c2ccc(C(=O)O)cc2)cc1 [MnTBAP, Manganese (III) tetrakis (4-benzoic acid)porphyrin chloride]
[1]; CLP-MnTBAP group vs CLP-placebo group, p=0.01, did not differ from Control-placebo
  IL1β expression in microglial cells: significantly lower
[1]; CLP-MnTBAP group vs CLP-placebo group, p=0.023, did not differ from Control-placebo
  Lgals3 (M2a) gene expression in microglial cells: significantly lower
[1]; MnTBAP alone (control mice)
  microglial immunophenotype: did not alter
[1]; septic mice
  microglial immunoprofile: shifts microglial immunoprofile from a neurotoxic toward a neuroprotective phenotype
[1]; septic mice, MnTBAP compared to the placebo group, p=0.026, did not differ from Control-placebo
  Ptgs2 (M1 marker) transcripts in microglial cells: significantly reduced
[1]; septic mice, MnTBAP compared to the placebo group, p=0.047, did not differ from Control-placebo
  IL1RA (M2b marker) transcripts in microglial cells: significantly reduced
[2]; [3]
  brain acetyl-coA levels: strongly decreased
  brain mtRNA 16S levels: strongly decreased
[2]; [4]
  brain ATP production: significantly increasing
  brain ROS/RNS levels: significantly increasing
  brain SOD1 expression: significantly increasing
  brain SOD activity levels: significantly increasing
[2]; CLP mice, 21 days after sepsis
  sepsis-induced brain alterations: counteracted
[2]; [5]
  brain PGC1 alpha expression: did not affect
  brain acetyl-coA levels: did not affect
  brain catalase expression: did not affect
[2]; [6]
  brain ATP production: increase
  brain NRF2 expression: increase
  brain SOD1 expression: increase
  brain SOD2 expression: increase
  brain SOD activity: increase
  brain mtDNA content: increase
[2]; MnTBAP in control mice vs Control-placebo mice, p=0.0005
  brain mtRNA 16S level: increase
[2]; MnTBAP in control mice vs Control-placebo mice, p=0.001
  brain ROS/RNS levels: increase
[2]; MnTBAP in control mice vs Control-placebo mice, p=0.04
  brain mtRNA CytB level: increase

Source: patent US20240148749A1 (priority 2021, published 2024)
